# In patent US11135214B2, “Methods for enhancing the bio availability and exposure of a voltage-gated potassium channel opener” (priority 2018, dated 2021):
# Several values for one entry are separate records, joined by “and”; a condition that tells them apart may be missing. Equal values may be shown once.
# Columns and labels:
# [1] = tested on: cortical excitability; test: TMS crossover study, TMS-evoked EEG potentials (TEPs); format: in vivo, human; conditions: for N45 vs pre-dose: 4 h (p=0.03)
# Procedure: All 20 subjects underwent TMS-EMG and TMS-EEG sessions prior to dosing on Days 1 and 7 and at 2 and 4 h after dosing. […] For the 6 h timepoint, RMT was performed for 16 subjects, and AMT, EEG resting state, and TMS-EEG was performed for 8 subjects.
# Compound A-induced modulation of PD markers was evaluated as an effect of time (comparisons of 2, 4, and 6 h post-dose vs. pre-dose) and of concentration (using the post-dose measure taken during highest drug exposure vs. baseline).
# TMS-evoked EEG potentials (TEPs) were calculated by averaging artefact-free EEG trials in the different experimental conditions (Table 17).
# The following TEP components (P=positive, N=negative) in accordance with the literature were studied, value in parenthesis is the time of interest (TOI): P25 (15-35 ms), N45 (35-70 ms), P70 (70-80 ms), N100 (80-145 ms), and P180 (145-230 ms). TOIs were chosen on the basis of the grand-averaged TEPs and kept identical during the analysis of pre-dose and post-dose measurements and across conditions. To analyze drug-induced modulation of TEPs, we selected a region of interest (ROI) that was composed of 27 channels over and around the stimulation site (left M1) and the corresponding contralateral site (‘FC1’, ‘FC3’, ‘FC5’, ‘C1’, ‘C3’, ‘C5’, ‘CP1’, ‘CP3’, ‘CP5’, ‘P1’, ‘P3’, ‘P5’, ‘Cz’, ‘CPz’, ‘Pz’, ‘FC2’, ‘FC4’, ‘FC6’, ‘C2’, ‘C4’, ‘C6’, ‘CP2’, ‘CP4’, ‘CP6’, ‘P2’, ‘P4’, ‘P6’).
# To analyze significance of TEP amplitude modulations induced by Compound A, multiple dependent sample t-test comparisons (post-dose vs. pre-dose) were applied for each TOI in all the electrodes within the indicated ROI. To correct for multiple comparisons (i.e., electrodes, timepoints), we conducted a non-parametric cluster-based permutation analysis as implemented in FieldTrip.
# [2] = tested on: corticospinal excitability; test: TMS crossover study, TMS-EMG resting motor threshold (RMT); format: in vivo, human; conditions: for Resting Motor Threshold, post-dose change from baseline: individual subjects; for Resting Motor Threshold, post-dose change from baseline (Mean): mean of subjects
# Procedure: PD assessments included resting state electroencephalogram (RS-EEG); TMS-EMG measurements including resting motor threshold (RMT), active motor threshold (AMT), and short-interval intracortical inhibition (SICI); and TMS-EEG measurements. All 20 subjects underwent TMS-EMG and TMS-EEG sessions prior to dosing on Days 1 and 7 and at 2 and 4 h after dosing. […] For the 6 h timepoint, RMT was performed for 16 subjects, and AMT, EEG resting state, and TMS-EEG was performed for 8 subjects. RMT and AMT values are reported as percentages of maximum stimulator output (% MSO). Drug-induced modulation of TMS-EMG parameters were evaluated over the 3 timepoints (2, 4, and 6 h) and for the timepoint with the highest drug exposure. Individual and averaged RMT values at baseline and change each timepoint for Compound A and placebo for all 20 subjects are presented in Table 18. […] In addition, RMT could not be registered for Subject 912 at 2 hours after Compound A intake.
# [3] = First-in-human SAD and MAD study, safety and tolerability; format: in vivo; conditions: for Cmax: human, plasma, oral, read-out: individual Cmax levels up to which well tolerated
# Procedure: A first-in-human study was conducted to evaluate the safety, tolerability and pharmacokinetics (PK) of single and multiple ascending doses (SAD and MAD) of oral Compound A.
# In the SAD Phase, 32 healthy volunteers were randomized (3:1) to Compound A (5, 15, 20, 25 or 30 mg) or placebo. The study featured an adaptive design. A crossover food effect cohort (N=10) was also completed with single doses of 20 mg. A sub-set of 8 male subjects were also assessed with Transcranial Magnetic Stimulation (TMS) for effects on cortical excitability (see Examples 4 and 5).
# Repeat doses of Compound A (15 mg QD) were evaluated in a fasted and fed state over 7 and 10 days, respectively. Repeat doses of Compound A (25 mg QD) were also evaluated in a fed state over 10 days.
# Compound A was formulated as an immediate release capsule. Serial plasma PK samples were collected for all cohorts. Safety evaluations throughout the study included adverse event (AE) monitoring, clinical laboratory tests, vital signs, ECGs, physical examinations and Columbia-Suicide Severity Rating Scale.
# [4] = Open-label randomized two-period fed/fasted crossover study, plasma PK; conditions: human, in vivo
# From the text: The study consisted of two Treatment Periods, Period 1 and Period 2. Each Treatment Period consisted of 7 days, with the dosing of Compound A occurring on Day 1. The two treatment periods were separated by a washout period of 10 days. The subjects were randomized into two groups. During Treatment Period 1, one group received an oral dose of Compound A while fasted and the other group received an oral dose of Compound A when fed. The group which fasted in Treatment Period 1 was fed in Treatment Period 2 and vice versa.
# On Day 1 of each Treatment Period, each subject orally received 20 mg of Compound A (4 capsules with 5 mg of Compound A in each capsule).
# During the fed period, following an overnight fast of at least 10 hours, a standard high fat, high calorie breakfast was given as per FDA guidance; the breakfast was given 30 minutes prior to the scheduled dosing time, and was completed 10 minutes before dosing. A representative breakfast included 2 slices of buttered toast, 2 fried eggs, 2 strips of bacon, 4 oz. of hash brown potatoes, and 8 oz. of whole milk.
# During the fasted period, dosing occurred after an overnight fast of at least 10 hours. No food was allowed for 4 hours post-dose in either the fed or fasted period. Water was allowed as desired except for one hour before and after dosing.
# For all subjects, blood samples for the determination of Compound A plasma concentration were collected at dosing (0.0 hours (time zero)) and at 0.5, 1.0, 1.5, 2.0, 3.0, 4.0, 6.0, 8.0, 12.0, 24.0, 32.0, 48.0 and 144.0 hours post-dose.
# [5] = single 20 mg dose, 2 h post-dose
# [6] = single 20 mg dose, 4 h post-dose
# [7] = single 20 mg dose, 6 h post-dose
smiles,measurement,setting,value
"Cc1cc(N2CCc3cc(F)ccc3C2)cc(C)c1NC(=O)CC(C)(C)C [Compound A, N-[4-(6-fluoro-3,4-dihydro-1H-isoquinolin-2-yl)-2,6-dimethylphenyl]-3,3-dimethylbutanamide]","Modulation of TEPs, N45",[1]; 2 h after dosing vs pre-dose,Not significant
same,"Modulation of TEPs, P180",[1]; 2 h after dosing vs pre-dose,Not significant
same,N15-P25 complex vs pre-dose,"[1]; all available subjects, 2 h (p=0.006) and 4 h (p=0.01)",decreased
same,P180 vs pre-dose,"[1]; all available subjects, 4 h (p=0.02)",significantly suppressed
same,N45 vs pre-dose,[1]; all available subjects,significantly suppressed
same,TEP amplitude P180,"[1]; concentration analysis N=16, highest plasma concentration, printed 2.2 vs 3.0 μV, p<0.01",2.2 μV
same,peak-to-peak amplitude of early complex N15-P25 (15 to 35 ms),"[1]; concentration analysis N=16, highest plasma concentration, printed 4.5 vs 6.0 μV, p<0.05",4.5 μV
same,TEP amplitude N45,"[1]; concentration analysis N=16, highest plasma concentration, printed −2.3 vs −3.0 μV, p<0.01",−2.3 μV
same,N15-P25 complex vs pre-dose,"[1]; subjects with drug exposure, 2 h (p=0.008) and 4 h (p=0.02)",decreased
same,P180 vs pre-dose,"[1]; subjects with drug exposure, 4 h (p=0.004)",significantly suppressed
same,N45 vs pre-dose,[1]; subjects with drug exposure,significantly suppressed
same,N100 vs pre-dose,"[1]; subjects with drug exposure, 4 h (p=0.04)",significantly suppressed
same,RMT,[2]; 20 mg single dose,significant increase in RMT
same,"RMT increase, mean±SEM","[2]; 20 mg, 6 h",4.9±0.7%
same,effect on RMT,"[2]; 20 mg, 6 h post-dose",> 4%
same,"Resting Motor Threshold, post-dose change from baseline",[2]; [5],3 % MSO (4×) and 1 % MSO (4×) and 0 % MSO (7×) and 2 % MSO (3×) and 6 % MSO
same,"Resting Motor Threshold, post-dose change from baseline",[2]; [6],7 % MSO (2×) and 1 % MSO (4×) and 0 % MSO (4×) and 6 % MSO (2×) and 3 % MSO (3×) and 5 % MSO and 10 % MSO and 2 % MSO (2×) and 4 % MSO
same,"Resting Motor Threshold, post-dose change from baseline",[2]; [7],8 % MSO (2×) and 4 % MSO (3×) and 6 % MSO (2×) and 10 % MSO and 1 % MSO (2×) and 0 % MSO and 7 % MSO (3×) and 3 % MSO (2×)
same,"Resting Motor Threshold, post-dose change from baseline (Mean)",[2]; [5],1.5 % MSO
same,"Resting Motor Threshold, post-dose change from baseline (Mean)",[2]; [6],3.1 % MSO
same,"Resting Motor Threshold, post-dose change from baseline (Mean)",[2]; [7],4.9 % MSO
same,RMT compared to time matched placebo,"[2]; single 20 mg dose, 2, 4, and 6 h post-dose",increased RMT from baseline
same,Cmax,[3]; multiple doses,≤ 107 ng/mL
same,Cmax,[3]; single doses,≤ 104 ng/mL
same,"SAEs, deaths, ECG or laboratory findings",[3]; single and multiple doses,"no SAEs, deaths, or clinically significant ECG or laboratory findings"
same,severity of the majority of AEs,"[3]; single and multiple doses, e.g. dizziness, sedation",mild or moderate
same,safety and tolerability,[3]; single doses of up to 30 mg and multiple doses of 25 mg QD,safe and well-tolerated
same,concentration at 3 h,"[4]; both sexes, fed, 20 mg oral, 3.0 h, individual subjects, read-out: Compound A Concentration",104 ng/mL
same,Cmax,"[4]; both sexes, fed, 20 mg oral, individual subjects",104 ng/mL
same,"bioavailability and exposure, fed compared to fasted conditions","[4]; po, 20 mg",significantly enhanced
